Experimental data from US8222004B2, “Diagnosis and treatment of autism using CD38” (National University Corporation Kanazawa University, priority 2006, dated 2012).

How the values were obtained:
[1] = test system: pituitary nerve terminals; assay: Oxytocin release from isolated pituitary nerve terminals (in vitro); assay type: cell-based, mouse
Experimental: (§1) Cell bodies of hypothalamic neurons and nerve terminals were isolated according to a previously described method (OuYang, W., et al., Brain Res. 1024, 203-21.1 (2004)), then washed with a Locke solution, and homogenized in a solution containing sucrose, 270; HEPES-Tris, 10; and K-EGTA, 0.01 (in mM, pH 7.25). The homogenates were transferred to Petri dishies and left standing for 5 to 8 minutes.
Isolated cells and nerve terminals were left standing for 6 hours, and then, an experiment was started. The specimens were perfused for 45 minutes, and the perfusate was collected at last 5-minute intervals three times in total for control concentration measurement. Subsequently, the specimens were perfused for additional 5 minutes with Locke solution containing 70 mmol of KC1, and oxytocin concentrations in the obtained perfusates were determined using an oxytocin determination kit and considered as concentrations of oxytocin released by depolarization stimulation.

isolated nerve terminals = assay: Intracellular Ca2+ concentration in isolated nerve terminals (Oregon Green); assay type: cell-based, mouse; conditions: wild-type mice; 50 mM KCl
Experimental: as §1
The cells were incubated with Oregon Green for 1 hour to incorporate the dye into the cells. Subsequently, a fluorescence intensity of the cells was measured using an excitation wavelength of 485 nm and a filter of 538 nm. A fluorescence microspectrophotometer and a condenser with an ARGUS-50 CCD camera were used for the measurement.

[2] = test system: postpartum female CD38−/− mice; assay: Maternal behaviors of postpartum female mice (pup retrieval, crouching) after subcutaneous peptide administration; assay type: in vivo, mouse; conditions: once, 1 to 10 ng/kg
Experimental: Then, each mother mouse was put back at a corner of a cage, and the pups were placed at remaining 3 corners. In this state, behaviors of the mother mouse were observed. A latency to retrieve each pup and a duration of crouching over 3 pups were also measured.
According to a previously described method (Boccia, M. M., et al., Neurobiol. Learn. Memory 69, 136-146 (1998)), oxytocin (OT) or vasopressin (AVP) dissolved in 0.05 M acetic acid was adjusted to 0.01 μM with saline, and this solution was subcutaneously administered once at a dose of 1 to 10 ng/kg body weight […] to the postpartum female CD38−/− mice (N=6 to 8) described above and young male mice (N=10 per group).

[3] = test system: male CD38−/− and wild-type mice; assay: Social memory of male mice (olfactory investigation time on repeated encounters); assay type: in vivo, mouse; conditions: subcutaneous, once, 1 to 10 ng/kg; for social memory (olfactory investigation): young male CD38−/− mice
students = conditions: 194 students, intranasal administration, versus placebo; cited from earlier work
[4] = target: ADP-ribosyl cyclase activity (Homo sapiens, UniProt P28907, R140W); conditions: mutated CD38 found in human diabetes; cited from earlier work
Chain of ADP-ribosyl cyclase activity (P28907 whole entry R140W): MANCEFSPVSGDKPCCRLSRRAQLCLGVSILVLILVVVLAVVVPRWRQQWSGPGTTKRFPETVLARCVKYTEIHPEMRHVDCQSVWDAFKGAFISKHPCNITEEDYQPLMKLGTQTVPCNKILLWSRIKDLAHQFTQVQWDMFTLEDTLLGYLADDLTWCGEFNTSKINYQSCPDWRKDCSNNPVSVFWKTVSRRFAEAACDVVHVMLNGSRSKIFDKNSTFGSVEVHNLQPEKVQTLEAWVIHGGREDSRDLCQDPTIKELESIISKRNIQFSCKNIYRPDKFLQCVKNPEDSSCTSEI

Compound: 8-bromo-cADPR
- oxytocin release from the pituitary nerve terminals ([1]; wild-type mice, 100 μM, high-potassium depolarization): decreased to same levels as those in the CD38−/− mice
- increase in intracellular Ca2+ concentration (isolated nerve terminals): significantly inhibited

Compound: Nc1ncnc2c1ncn2[C@@H]1O[C@H](COP(=O)(O)OP(=O)(O)OCC2OC([n+]3cccc(C(=O)[O-])c3)C(O)C2O)[C@@H](O)[C@H]1OP(=O)(O)O (stereo in doubt) [NAADP, nicotinate adenine dinucleotide phosphate]
- oxytocin release from the pituitary nerve terminals ([1]; all the mice, initially stimulated with Ca2+, 100 nM given outside the cells): promoted

Compound: CO/C1=C\C(C)=C\[C@@H](C)[C@@H](O)[C@@H](C)C/C(C)=C/C=C/[C@H](OC)[C@@H]([C@@H](C)[C@@H](O)[C@H](C)[C@@]2(O)C[C@@H](O)[C@H](C)[C@@H](C(C)C)O2)OC1=O [bafilomycin]
- oxytocin release from the pituitary nerve terminals ([1]; wild-type mice, 2 μM, high-potassium depolarization): decreased to same levels as those in the CD38−/− mice

Compound: N=c1c2ncn3c2ncn1[C@@H]1O[C@H](COP(=O)(O)OP(=O)(O)OC[C@H]2O[C@@H]3[C@H](O)[C@@H]2O)[C@@H](O)[C@H]1O [cADPR, cyclic ADP-ribose]
- increase of oxytocin release ([1]; CD38−/− mice, pituitary nerve terminals, 10 μM): 2.5 fold
- oxytocin release from the pituitary nerve terminals ([1]; all the mice, initially stimulated with Ca2+, 10 μM given outside the cells): promoted

Compound: CC[C@H](C)[C@@H]1NC(=O)[C@H](Cc2ccc(O)cc2)NC(=O)[C@@H](N)CSSC[C@@H](C(=O)N2CCC[C@H]2C(=O)N[C@@H](CC(C)C)C(=O)NCC(N)=O)NC(=O)[C@H](CC(N)=O)NC(=O)[C@H](CCC(N)=O)NC1=O [oxytocin]
- maternal behaviors (latency to retrieve pups, duration of crouching) [2]: recovered to same levels of maternal behaviors as those of the wild-type mice
- change in behaviors of wild-type mice [3]: no change
- social memory (olfactory investigation) [3]: recovered a social memory
- investment in an investment game (trust, prosocial behavior) (students): invested more money and more frequently invested a maximum allowable than the placebo group

Compound: NC(=O)CC[C@@H]1NC(=O)[C@H](Cc2ccccc2)NC(=O)[C@H](Cc2ccc(O)cc2)NC(=O)[C@@H](N)CSSC[C@@H](C(=O)N2CCC[C@H]2C(=O)N[C@@H](CCCN=C(N)N)C(=O)NCC(N)=O)NC(=O)[C@H](CC(N)=O)NC1=O [vasopressin]
- change in behaviors of wild-type mice [3]: no change
- social memory (olfactory investigation) [3]: no detectable change

Compound: mutated CD38: human CD38 with substitution of tryptophan for arginine at position 140, found in human diabetes
- ADP-ribosyl cyclase activity relative to normal [4]: about ⅓

Compound: ryanodine
- oxytocin release from the pituitary nerve terminals ([1]; wild-type mice, 200 μM, high-potassium depolarization): decreased to same levels as those in the CD38−/− mice
- increase in intracellular Ca2+ concentration (isolated nerve terminals): significantly inhibited
